Data reported in US6642004B2, “Method for measuring nucleotides” (FMC Corporation, priority 2000, dated 2003).
Like-named read-outs stand apart in the source and are kept apart here.

Key:
Sf9 cells = experiment: quantification of cAMP generated in Sf9 cells after compound treatment ([3H]cAMP competition for bovine adrenal binding protein, single vessel); type: cell-based
Description: On the day of the experiment, four-day sold Sf9 cells for use in the first step, with cell density at about 5,000,000 to about 6,000,000 cells, were spun in a Biofuge 15 centrifuge (available from Heneaus Instruments, Germany at 1310 rpm (500 g) for five minutes. After this time, the supernatant was discarded and sufficient Sf9 serum free medium (Sf900 II SFM) was added to the resulting cell pellet give a final concentration of 2,000,000 cells /ml. To these cells was added 0.02 ml of Solution J. Upon completion of addition, the resulting solution was gently mixed and then incubated at ambient temperature for 40 minutes, for use, below .
This method was performed in the manner disclosed in Example 1 except that synephrine was used rather than amitraz, and the concentrations of the synephrine dilutions were in the range of 0.00369 mM to 1.0 mM rather than 0.00123 mM to 0.3 mM.
This method was performed in the manner disclosed in Example 1 except that DL-octopamine was used rather than amitraz, and the concentrations of the DL-octopamine dilutions were in the range of about 0.0123 mM to about 3.0 mM rather than about 0.00123 mM to about 0.3 mM.
This method was performed in the manner disclosed in Example 1 except that DCDM was used rather than amitraz, and the concentrations of the DCDM dilutions were in the range of 0.000123 mM to about 0.03 mM rather than 0.00123 mM to about 0.3 mM.

[1] = system: protein derived from a bovine adrenal gland
Description: Thereafter, 50 μl of the above-prepared Sf9 cell solution was added to all of the wells. The microplates were incubated at ambient temperature for 45 minutes. After this time, the Sf9 cells were lysed by adding 50 μl of Solution H. The microplates were incubated a second time at ambient temperature for 15 to 20 minutes. After this time, 25 μl of Solution R followed by 25 μl of Solution Q were added to the microplates. The microplates were incubated for a third time at ambient temperature with shaking at 125 rpm for 90 minutes. The resulting mixtures were filtered under reduced pressure through glass fiber filtermats, which were soaked in 500 ml of Solution G for about 30 minutes prior to use. The filtermats were washed for ten seconds with ice-cold Solution F and then, dried at 60° C. for 45 to 60 minutes in a Stabil-Therm® oven (available from Blue M Electric Co., Blue Island, Ill.). After this time, the amount of the radiolabeled 3′,5′-monophosphate/binding protein complex bound to the filtermats was determined by the aforesaid quantification method.

[2] = 0.000111 mM in the synephrine series

NCC(O)c1ccc(O)cc1 (racemic) [DL-octopamine]
Specific Counts (dpm) (Sf9 cells; 0.00041 mM): 5942.2 dpm
Total Counts (dpm) Determined (Sf9 cells; 0.00041 mM): 6899 dpm
inhibition at 0.41 µM (Sf9 cells; 0.00041 mM): 6.9%
Specific Counts (dpm) (Sf9 cells; 0.00123 mM): 5639.1 dpm
Total Counts (dpm) Determined (Sf9 cells; 0.00123 mM): 6595.9 dpm
inhibition at 1.23 µM (Sf9 cells; 0.00123 mM): 11.7%
Specific Counts (dpm) (Sf9 cells; 0.0037 mM): 4952.4 dpm
Total Counts (dpm) Determined (Sf9 cells; 0.0037 mM): 5909.2 dpm
inhibition at 3.7 µM (Sf9 cells; 0.0037 mM): 22.4%
Specific Counts (dpm) (Sf9 cells; 0.0111 mM): 3295.5 dpm
Total Counts (dpm) Determined (Sf9 cells; 0.0111 mM): 4252.3 dpm
inhibition at 11.1 µM (Sf9 cells; 0.0111 mM): 48.4%
Specific Counts (dpm) (Sf9 cells; 0.0333 mM): 1934.3 dpm
Total Counts (dpm) Determined (Sf9 cells; 0.0333 mM): 2891.1 dpm
inhibition at 33.3 µM (Sf9 cells; 0.0333 mM): 69.7%
Specific Counts (dpm) (Sf9 cells; 0.1 mM): 1267.9 dpm
Total Counts (dpm) Determined (Sf9 cells; 0.1 mM): 2224.7 dpm
inhibition at 100 µM (Sf9 cells; 0.1 mM): 80.1%

Cc1ccc(/N=C/N(C)/C=N/c2ccc(C)cc2C)c(C)c1 [Amitraz, amitraz]
Specific Counts (dpm) (Sf9 cells; 0.000041 mM): 6020.4 dpm
Total Counts (dpm) Determined (Sf9 cells; 0.000041 mM): 6899.4 dpm
inhibition at 0.041 µM (Sf9 cells; 0.000041 mM): 2.5%
Specific Counts (dpm) (Sf9 cells; 0.000123 mM): 5130.2 dpm
Total Counts (dpm) Determined (Sf9 cells; 0.000123 mM): 6009.2 dpm
inhibition at 0.123 µM (Sf9 cells; 0.000123 mM): 16.9%
Specific Counts (dpm) (Sf9 cells; 0.00037 mM): 3939.2 dpm
Total Counts (dpm) Determined (Sf9 cells; 0.00037 mM): 4818.2 dpm
inhibition at 0.37 µM (Sf9 cells; 0.00037 mM): 36.2%
Specific Counts (dpm) (Sf9 cells; 0.00111 mM): 2562.5 dpm
Total Counts (dpm) Determined (Sf9 cells; 0.00111 mM): 3441.5 dpm
inhibition at 1.11 µM (Sf9 cells; 0.00111 mM): 58.5%
Specific Counts (dpm) (Sf9 cells; 0.00333 mM): 1428.2 dpm
Total Counts (dpm) Determined (Sf9 cells; 0.00333 mM): 2307.2 dpm
inhibition at 3.33 µM (Sf9 cells; 0.00333 mM): 76.9%
Specific Counts (dpm) (Sf9 cells; 0.01 mM): 1049.5 dpm
Total Counts (dpm) Determined (Sf9 cells; 0.01 mM): 1928.5 dpm
inhibition at 10 µM (Sf9 cells; 0.01 mM): 83%

CN=CNc1ccc(Cl)cc1C [DCDM, demethylchlordimeform]
% Inhibition (Sf9 cells; 0.0000041 mM): 11.7%
Specific Counts (dpm) (Sf9 cells; 0.0000041 mM): 5687.8 dpm
Total Counts (dpm) Determined (Sf9 cells; 0.0000041 mM): 6512.1 dpm
% Inhibition (Sf9 cells; 0.0000123 mM): 23.1%
Specific Counts (dpm) (Sf9 cells; 0.0000123 mM): 4954.7 dpm
Total Counts (dpm) Determined (Sf9 cells; 0.0000123 mM): 5779.0 dpm
% Inhibition (Sf9 cells; 0.000037 mM): 38%
Specific Counts (dpm) (Sf9 cells; 0.000037 mM): 3993.7 dpm
Total Counts (dpm) Determined (Sf9 cells; 0.000037 mM): 4818 dpm
% Inhibition (Sf9 cells; 0.000111 mM): 58.3%
Specific Counts (dpm) (Sf9 cells; 0.000111 mM): 2689.4 dpm
Total Counts (dpm) Determined (Sf9 cells; 0.000111 mM): 3513.7 dpm
% Inhibition (Sf9 cells; 0.000333 mM): 77.1%
Specific Counts (dpm) (Sf9 cells; 0.000333 mM): 1472.8 dpm
Total Counts (dpm) Determined (Sf9 cells; 0.000333 mM): 2297.1 dpm
% Inhibition (Sf9 cells; 0.001 mM): 84.1%
Specific Counts (dpm) (Sf9 cells; 0.001 mM): 1026.2 dpm
Total Counts (dpm) Determined (Sf9 cells; 0.001 mM): 1850.5 dpm

CNCC(O)c1ccc(O)cc1 (centres unmarked) [Synephrine, synephrine]
Specific Counts (dpm) (Sf9 cells; [2]): 4516.2 dpm
Total Counts (dpm) Determined (Sf9 cells; [2]): 5487 dpm
Specific Counts (dpm) (Sf9 cells; 0.000123 mM): 6081.7 dpm
Total Counts (dpm) Determined (Sf9 cells; 0.000123 mM): 7052.5 dpm
inhibition at 0.123 µM (Sf9 cells; 0.000123 mM): 3.1%
Specific Counts (dpm) (Sf9 cells; 0.00037 mM): 5260 dpm
Total Counts (dpm) Determined (Sf9 cells; 0.00037 mM): 6230.8 dpm
inhibition at 0.37 µM (Sf9 cells; 0.00037 mM): 16.2%
Specific Counts (dpm) (Sf9 cells; 0.00333 mM): 2732.7 dpm
Total Counts (dpm) Determined (Sf9 cells; 0.00333 mM): 3703.5 dpm
inhibition at 3.33 µM (Sf9 cells; 0.00333 mM): 56.4%
Specific Counts (dpm) (Sf9 cells; 0.011 mM): 1605.1 dpm
Total Counts (dpm) Determined (Sf9 cells; 0.011 mM): 2575.9 dpm
inhibition at 11 µM (Sf9 cells; 0.011 mM): 74.4%
Specific Counts (dpm) (Sf9 cells; 0.033 mM): 1074.6 dpm
Total Counts (dpm) Determined (Sf9 cells; 0.033 mM): 2045.4 dpm
inhibition at 33 µM (Sf9 cells; 0.033 mM): 82.9%

Nc1ncnc2c1ncn2[C@@H]1O[C@@H]2COP(=O)(O)O[C@H]2[C@H]1O [cAMP Standard, cyclic adenosine 3′,5′-monophosphate]
% Inhibition ([1]; 0.0000026 mM): 20.3%
Specific Counts (dpm) ([1]; 0.0000026 mM): 5398.5 dpm
Total Counts (dpm) Determined ([1]; 0.0000026 mM): 5791 dpm
% Inhibition ([1]; 0.0000078 mM): 37.5%
Specific Counts (dpm) ([1]; 0.0000078 mM): 4234.8 dpm
Total Counts (dpm) Determined ([1]; 0.0000078 mM): 4627.3 dpm
% Inhibition ([1]; 0.000023 mM): 61.7%
Specific Counts (dpm) ([1]; 0.000023 mM): 2595.8 dpm
Total Counts (dpm) Determined ([1]; 0.000023 mM): 2988.3 dpm
% Inhibition ([1]; 0.00007 mM): 78.8%
Specific Counts (dpm) ([1]; 0.00007 mM): 1435.8 dpm
Total Counts (dpm) Determined ([1]; 0.00007 mM): 1828.3 dpm
% Inhibition ([1]; 0.00021 mM): 90.4%
Specific Counts (dpm) ([1]; 0.00021 mM): 648.8 dpm
Total Counts (dpm) Determined ([1]; 0.00021 mM): 1041.3 dpm
% Inhibition ([1]; 0.00064 mM): 95.5%
Specific Counts (dpm) ([1]; 0.00064 mM): 307.6 dpm
Total Counts (dpm) Determined ([1]; 0.00064 mM): 700.3 dpm
